Test results published in US20090304818A1, “METHOD OF TREATMENT” (priority 2005, published 2009).

System: sepsis in conscious sheep
Experiment: Ang II infusion in E. coli-induced sepsis in conscious sheep (FIG. 1)
Type: in vivo
Details: sepsis + Ang II infusion period, four conscious sheep
Description: Seven female Merino ewes weighing between 34.2 kg and 47.3 kg were procured for chronic instrumentation. The sheep were held and studied in metabolic cages, with free access to food and water. The animals underwent two separate operative procedures. For all procedures, anaesthesia was induced with sodium thiopentone (15 mg/kg) for endotracheal tube placement (cuff size 10). Maintenance anaesthesia was by means of oxygen/air/isoflurane (1 to 2%). Fractional inspired oxygen was altered to maintain PaO2 at approximately 100 mm Hg, and ventilation was controlled to maintain PaCO2 at approximately 40 mm Hg.
First, a left-sided thoracotomy was performed. The pericardium was opened, and a transit time flow probe (20 mm, Transonics Systems, Ithaca, N.Y.) was placed around the pulmonary artery to measure cardiac output. After two weeks recovery, a left-sided flank incision was made and a retroperitoneal dissection was performed to expose the left renal artery. […]
Analog signals of mean arterial pressure (MAP), central venous pressure (CVP), cardiac output (CO), and renal blood flow (RBF) were collected using a PC using a customized data acquisition system (Labview National Instruments). Data were recorded at 100 Hz for 10 s at every minute throughout the experimental protocol. Total peripheral conductance (TPC) (cardiac output/mean arterial pressure) and renal vascular conductance (RVC) (renal blood flow/mean arterial pressure) were calculated.
During the experimental periods MAP, CVP, CO, RBF and heart rate were measured continuously. Following a 12-hour baseline period, sheep were monitored for a 48 hour control period. After 7 days, sheep were monitored for a 2nd baseline period, followed by induction of sepsis by intravenous administration of a bolus of live E. coli (3.9×10^9 colony forming units in 15 mL saline), followed by a continuous infusion ([…] at 5 mL/h) for 48 h. […]
In both treatments, after the 12-hour baseline period, normal saline (1 mL/kg/h) was infused to avoid hypovolemia. Urinary output was measured and urine sampled every 90 minutes. […]

angiotensin II (DRVYIHPF; Angiotensin-2; UniProt P01019 25-32, looked up) [Ang II, vasoconstricting agent with preferential action on the efferent arteriole of the glomerulus; acts at the AT-1 receptor]
return these variables to normal: renal blood flow (increased in sepsis) | mean arterial pressure (reduced in sepsis) | urine output (reduced in sepsis)
